In patent US20020132019A1, “Sterol fractions of Nigella sativa L. seeds” (priority 2000, published 2002):

Experiments:
Type in all cases: in vivo
[1] = tested on: histamine-induced bronchospasm in guinea pigs; experiment: Prophylactic anti-allergic effect: protection against histamine aerosol (1%) induced bronchospasm; details: 239 mg/kg i.p.
Procedure: The prophylactic anti-allergic effects of the Nigella sativa L. sterol fraction were evaluated in guinea pigs (300-400 grams). Animals were divided into 5 groups (10 animals each) and treated i.p. As follows:
First: Animals treated by saline.
Second: Animals treated by diphenhydramine (239 mg/kg/day).
Third: Animals treated by the Nigella sativa L. sterol fraction (50 mg/kg).
Animals treated by the Nigella sativa L. sterol fraction (100 mg/kg).
Fifth: Animals treated by the Nigella sativa L. sterol fraction (150mg/kg).
Animals were exposed 30 minutes after their i.p. Injection of diphenhydramine and the Nigella sativa L. sterol fraction (50,100 and 150 mg/kg) to histamine aerosol (1% for 3 minutes to induce bronchospasm or tachypnea) (Armitage et al, Br. J. Pharmacol., 16:59-76 (1961)). The percent protection against bronchospasm and loss of rightening after 30, 60 and 90 minutes was calculated (Dawson and Sweatman, Br. J. Pharmacol, 71:387-398 (1980)).

[2] = tested on: ova albumin sensitized guinea pigs; experiment: Tachypnea protective effect in ova albumin sensitized animals; details: 50 :g/kg, treated for 21 days, ova albumin inhalation
Procedure: This experiment was an in vivo study to evaluate the tachypnea (protective) effect of the Nigella sativa L. sterol fraction of the present invention. The second protocol involved sensitized animals. Animals were sensitized by injecting ova albumin in two doses 100 mg. each (S.C. and I.P., simultaneously). Animals were resensitized 15 days later. Guinea pigs were divided into three groups with 8 animals per group. The first group received a saline injection to serve as negative control. The second group received ketotifen which is the standard treatment to serve as positive control. The third group received 200 mg/kg each of the Nigella sativa L. sterol fraction of the present invention. Animals in all groups were treated for 21 days following which they were exposed to ova albumin inhalation and time to onset of tachypnea was recorded as shown in the table below.

[3] = tested on: guinea pigs exposed to histamine aerosol (0.25%); experiment: Prophylactic anti-asthmatic effect: pre-convulsive time on histamine aerosol (0.25%); details: 50 :g/kg, treated for 21 days, histamine 0.25% aerosol
Procedure: This example explains an in vivo study to evaluate the prophylactic (protective) anti-asthmatic effect of the Nigella sativa L. sterol fraction. The prophylactic anti-asthmatic effect was evaluated in vivo by measurement of the pre-convulsive time in guinea pigs exposed to histamine aerosol (0.25%).
Guinea pigs were divided into three groups with 8 animals per group. The first group received saline injections to serve as negative control. The second group received ketotifen, which is the standard treatment to serve as positive control. The third group received 200 mg/kg each of the Nigella sativa L. sterol fraction of the present invention.
Animals in all groups were treated for 21 days after which time they were exposed to histamine (0.25 %) aerosol and the preconvulsive time was recorded.

| Compound | % protection 30 minutes ([1]; 30 minutes) [%] | % protection 60 minutes ([1]; 60 minutes) [%] | % protection 90 minutes ([1]; 90 minutes) [%] | % of Prophylaxis [2] [%] | % of Prophylaxis (Protection) [3] [%] |
| --- | --- | --- | --- | --- | --- |
| CN(C)CCOC(c1ccccc1)c1ccccc1 [Diphenhydramine, diphenhydramine] | 100 | 100 | 90 | – | – |
| CN1CCC(=C2c3ccccc3CC(=O)c3sccc32)CC1 [ketotifen] | – | – | – | 44.4 | 82.85 |
